Experiments:
[1] = tested on: MIA-induced osteoarthritic pain in rats; assay: Osteoarthritic (OA) pain induced by sodium monoiodoacetate (MIA), hind limb grip force; assay type: in vivo, rat; settings: male Sprague Dawley rats, grip force 20 days after MIA injection
[2] = tested on: spinal nerve ligation-induced neuropathic pain in rats; assay: Rat spinal nerve ligation (SNL) model of neuropathic pain, von Frey paw withdrawal threshold; assay type: in vivo; settings: SNL dose 100 mg/kg; male Sprague Dawley rats, mechanical sensitivity (von Frey)
Excerpt: Rat Spinal Nerve Ligation (SNL) Model of Neuropathic Pain.
A model of spinal nerve ligation-induced (SNL model) neuropathic pain as originally described by Kim and Chung (Kim, S. H. and J. M. Chung, 1992, Pain 50, 355) was used to test a compound of the present application. The male Sprague Dawley rats (Charles River Laboratories, Wilmington, Mass.), weighing 150-175 g at the time of surgery, were placed under isoflurane anesthesia and a 1.5 cm incision was made dorsal to the lumbosacral plexus. The paraspinal muscles (left side) were separated from the spinous processes, the left L5 and L6 spinal nerves isolated, and tightly ligated with 5-0 silk suture distal to the dorsal root ganglion. Care was taken to avoid ligating the L4 spinal nerve. Following spinal nerve ligation, a minimum of 7 days of recovery and no more than 3 weeks was allowed prior to the behavioral testing (mechanical sensitivity). Only rats with threshold scores ≦4.5 g were considered allodynic and utilized in pharmacological experiments.
Mechanical sensitivity was measured using calibrated von Frey filaments (Stoelting, Wood Dale, Ill.). Paw withdrawal threshold (PWT) was determined by using the Dixon's up-down method (Dixon, W. J., 1980, Ann. Rev. Pharmacol. Toxicol., 20, 441). Rats were placed into inverted individual plastic containers (20×12.5×20 cm) on top of a suspended wire mesh with a 1 cm^2 grid to provide access to the ventral side of the hind paws, and acclimated to the test chambers for 20 minutes. The von Frey filaments were presented perpendicularly to the plantar surface of the selected hind paw, and then held in this position for approximately 8 seconds with enough force to cause a slight bend in the filament. Positive responses included an abrupt withdrawal of the hind paw from the stimulus, or flinching behavior immediately following removal of the stimulus. A 50% withdrawal threshold was determined using an up-down procedure (Dixon, 1980). A percent maximal possible effect (% MPE) of testing compound was calculated according to the formula: (Log [compound-treated threshold]−Log [vehicle-treated threshold])/(Log [maximum threshold]−Log [vehicle-treated threshold])×100%, where the maximum threshold was equal to 15 g.
The animals were housed in Association for Assessment and Accreditation of Laboratory Animal Care (AAALAC) approved facilities at AbbVie Inc. in a temperature-regulated environment under a controlled 12-hour light-dark cycle, with lights on at 6:00 a.m. Food and water were available ad libitum at all times except during testing. All testing was done following procedures outlined in protocols approved by AbbVie Inc.s' Institutional Animal Care and Use Committee.

| SMILES | OA MPE (%) ([1]; OA dose 30 mg/kg) | SNL MPE (%) [2] [%] | OA MPE (%) ([1]; OA dose 10 mg/kg) |
| --- | --- | --- | --- |
| Cc1noc(C(C)N2CCN(c3cccc4c3cnn4-c3ccccc3F)C2=O)n1 (racemic) [Example 46, 1-[1-(2-fluorophenyl)-1H-indazol-4-yl]-3-[1-(3-methyl-1,2,4-oxadiazol-5-yl)ethyl]imidazolidin-2-one] | 69 | 59 | – |
| O=C(CN1CCN(c2cccc3c2cnn3-c2ccccc2F)C1=O)N[C@@H]1CCOC1 [Example 55, 2-{3-[1-(2-fluorophenyl)-1H-indazol-4-yl]-2-oxoimidazolidin-1-yl}-N-[(3R)-tetrahydrofuran-3-yl]acetamide] | 66 | 91 | – |
| Cc1noc(C)c1CN1CCN(c2cccc3c2cnn3-c2ccccc2F)C1=O [Example 27, 1-[(3,5-dimethyl-1,2-oxazol-4-yl)methyl]-3-[1-(2-fluorophenyl)-1H-indazol-4-yl]imidazolidin-2-one] | – | 63 | 57 |
| C[C@H]1CCCN1C(=O)CN1CCN(c2cccc3c2cnn3-c2ccccc2F)C1=O [Example 15, 1-[1-(2-fluorophenyl)-1H-indazol-4-yl]-3-{2-[(2S)-2-methylpyrrolidin-1-yl]-2-oxoethyl}imidazolidin-2-one] | 68 | 74 | – |

From patent US9783527B2, “Indazole ureas and method of use” (AbbVie Inc., priority 2014, dated 2017)
